Source: patent US10023587B2, “Oxabicycloheptanes and oxabicycloheptenes, their preparation and use” (LIXTE BIOTECHNOLOGY, INC., priority 2007, dated 2018)
Converted amounts (≈) assume the structure as drawn. Read-outs that look alike come from different tables or passages of the source.

Experiments:
[1] = test system: NCI-H460 cells; assay: CellTiter-Glo assay, NCI-H460; format: cell-based; details: Homo sapiens; NCI-H460 Lung: large cell, 72 hr; read-out: IC50 (50% Inhibition of Proliferation)
Description: (§1) MDA-MB-231, HT-29, NCI-H460, NCI-H522, NCI-H69, GXF-209, HepG2, OVAR-3, PANC-1, DU-145, LNCAP, HL-60, K-562, and MOLT-4 cell lines were either obtained from the American Type Culture Collection (ATCC; Manassas, Va.), or from the National Cancer Institute (NCI; Frederick, Md.). RPMI-1640 media, L-glutamine dipeptide (HyQ SG-200), and HEPES were obtained from Hyclone (Logan, Utah).
(§2) All cell lines were routinely cultured twice weekly in RPMI-1640 medium supplemented with 2 mM L-glutamine dipeptide, 10 mM HEPES, and 10% FBS.
(§3) The adherent cell lines MDA-MB-231, HT-29, NCI-H460, NCI-H522, GXF-209, HepG2, OVAR-3, PANC-1, DU-145, and LNCAP cells were each seeded into two 96-well plates at 2,500 cells per well in a total volume of 50 uL and incubated in a 37° C. humidified 5% CO2 cell culture incubator overnight. The suspension cell lines NCI-H69, HL-60, K-562, and MOLT-4 were each seeded into two 96-well plates at 10,000 cell per well in a total volume of 50 uL and incubated in a 37° C. humidified 5% CO2 incubator overnight.
(§4) This was followed by making 2× stocks of the final concentrations required in RPMI-1640 medium. […]
(§5) Briefly, plates were removed from the incubator and placed on the bench at room temperatures for 30 minutes. […] Luminescence was then recorded using the PerkinElmer Microbeta scintillation and luminescence counter (Trilux).

[2] = Solubility (water, lipid); format: physicochemical
[3] = test system: Fourteen Human Cancer Cell Lines; assay: CellTiter-Glo assay, panel of fourteen human cancer cell lines; format: cell-based; details: compared with positive comparator doxorubicin
Description: as §1, §2, §3, §4, §5

[4] = test system: A. fumigatus; assay: Antifungal susceptibility testing (broth dilution), A. fumigatus; format: cell-based, Aspergillus fumigatus; details: for MIC: Aspergillus fumigatus, read-out: minimum inhibitory concentration (MIC)
Description: (§6) Anti-fungal testing was completed with a common lot for compounds 100 and 102.
(§7) A 10 mg portion of each powder was weighed out and added to 1 ml of sterile distilled water for compound 100 and DMSO for compound 102. The resulting concentration of […] was diluted to a working concentration of 640 μg/ml for each compound. All subsequent dilutions were also made using the respective diluents. Final testing concentrations ranged from 0.125-64 μg/ml.
(§8) A total of 23 isolates were tested to include 3 Candida albicans, 3 Candida glabrata, 3 Cryptococcus neoformans, 3 Aspergillus fumigatus, 3 Rhizopus oryzae, 3, Fusarium solani, 3 Pseudallescheria boydii, and 2 […] rubrum. All isolates were clinical isolates submitted to the Fungus Testing Laboratory for evaluation. Antifungal susceptibility testing was accomplished according to the methods outlined in the National Committee for Clinical Laboratory Standards, M-27A2, Reference Method for Broth Dilution Antifungal Susceptibility Testing of Yeasts; Approved Standard, and M38-A “Reference Method for Broth Dilution Antifungal Susceptibility Testing of Conidium-Forming Filamentous Fungi; Approved Standard”. This includes testing in RPMI-1640 with glutamine and without bicarbonate, an inoculum size of 0.5-2.5×10^3 for yeasts or 1-5×10^4 for moulds, and incubation at 35° C. for 24 and 48 hours.

[5] = test system: C. neoformans; assay: Antifungal susceptibility testing (broth dilution), C. neoformans; format: cell-based, Cryptococcus neoformans; details: for MIC: Cryptococcus neoformans, read-out: minimum inhibitory concentration (MIC)
Description: as §6, §7, §8

[6] = test system: C. glabrata; assay: Antifungal susceptibility testing (broth dilution), C. glabrata; format: cell-based, Candida glabrata; details: for MIC: Nakaseomyces glabratus, read-out: minimum inhibitory concentration (MIC)
Description: as §6, §7, §8

[7] = test system: DAOY cells; assay: DAOY xenograft tumor growth in SCID mice; format: in vivo; details: subcutaneous in SCID mice, ip daily for 20 days (FIG. 18)
Description: For in vivo experiments, subcutaneously implanted tumor cells are allowed to grow over 7 days to a size of 5-7 mm. On day 7, drug administration is begun ip daily for 20 days. The maximum perpendicular diameters of the tumor masses are measured every 2 to 5 days. On the 21st day after initiation of treatment, the animals are sacrificed and dissected free of the subcutaneous tissues and measured.

[8] = test system: T. rubrum; assay: Antifungal susceptibility testing (broth dilution), T. rubrum; format: cell-based, Trichophyton rubrum; details: for MIC: Trichophyton rubrum, read-out: minimum inhibitory concentration (MIC); for minimum inhibitory concentration (MIC): isolate 07-2055
Description: as §6, §7, §8

[9] = test system: C. albicans; assay: Antifungal susceptibility testing (broth dilution), C. albicans; format: cell-based, Candida albicans; details: for MIC: Candida albicans, read-out: minimum inhibitory concentration (MIC)
Description: as §6, §7, §8

| Structure (SMILES) | IC50 [1] [µM] | Activity against the fourteen cell lines (in words) [3] | minimum inhibitory concentration (MIC) ([4]; isolate 06-4126, 24 Hours) [µg/mL] | minimum inhibitory concentration (MIC) ([4]; isolate 06-4126, 48 Hours) [µg/mL] | minimum inhibitory concentration (MIC) ([4]; isolate 07-2039, 24 Hours) [µg/mL] | minimum inhibitory concentration (MIC) ([4]; isolate 07-2039, 48 Hours) [µg/mL] | minimum inhibitory concentration (MIC) ([5]; isolate 07-2737, 24 Hours) [µg/mL] | minimum inhibitory concentration (MIC) ([5]; isolate 07-2737, 48 Hours) [µg/mL] | minimum inhibitory concentration (MIC) ([5]; isolate 07-2829, 24 Hours) [µg/mL] | minimum inhibitory concentration (MIC) ([5]; isolate 07-2829, 48 Hours) [µg/mL] | minimum inhibitory concentration (MIC) ([6]; isolate 07-2965, 24 Hours) [µg/mL] | minimum inhibitory concentration (MIC) ([6]; isolate 07-2965, 48 Hours) [µg/mL] | minimum inhibitory concentration (MIC) ([6]; isolate 07-3013, 24 Hours) [µg/mL] | minimum inhibitory concentration (MIC) ([6]; isolate 07-3013, 48 Hours) [µg/mL] | Effect on DAOY xenograft tumor growth (in words) [7] | minimum inhibitory concentration (MIC) ([8]; 24 Hours) [µg/mL] | minimum inhibitory concentration (MIC) ([8]; 48 Hours) [µg/mL] | minimum inhibitory concentration (MIC) ([9]; isolate 07-3006, 24 Hours) [µg/mL] | minimum inhibitory concentration (MIC) ([9]; isolate 07-3006, 48 Hours) [µg/mL] | minimum inhibitory concentration (MIC) ([9]; isolate 07-3011, 24 Hours) [µg/mL] | other results |
| --- | --- | --- | --- | --- | --- | --- | --- | --- | --- | --- | --- | --- | --- | --- | --- | --- | --- | --- | --- | --- | --- |
| CC(C)(C)OC(=O)N1CCN(C(=O)C2C(C(=O)O)[C@H]3CC[C@@H]2O3)CC1 (stereo in doubt) [Compound 102, 4-(3-Carboxy-7oxa-bicyclo[2.2.1]heptane-2-carbonyl)piperazine-1-carboxylic acid tert-butyl ester] | 17.5 | significant activity | >64 | >64 | >64 | >64 | >64 | >64 | >64 | >64 | >64 | >64 | >64 | >64 | inhibit the proliferation | 2 (≈ 5.64 µM) | 2 (≈ 5.64 µM) | >64 | >64 | >64 | Lipid solubility (in words) [2]: lipid soluble; MIC ([4]; isolate 05-388, 24 Hours): > 64 µg/mL; MIC ([4]; isolate 05-388, 48 Hours): > 64 µg/mL; MIC ([5]; isolate 07-2665, 24 Hours): > 64 µg/mL; MIC ([5]; isolate 07-2665, 48 Hours): > 64 µg/mL; MIC ([6]; isolate 07-2964, 24 Hours): > 64 µg/mL; MIC ([6]; isolate 07-2964, 48 Hours): > 64 µg/mL; MIC ([8]; isolate 07-1743, 24 Hours): 2 µg/mL (≈ 5.64 µM); MIC ([8]; isolate 07-1743, 48 Hours): 2 µg/mL (≈ 5.64 µM); Antifungal activity against T. rubrum (in words) ([8]; testing concentrations 0.125-64 μg/ml): significant activity; MIC ([9]; isolate 07-3012, 24 Hours): > 64 µg/mL; MIC ([9]; isolate 07-3012, 48 Hours): > 64 µg/mL; minimum inhibitory concentration (MIC) ([9]; isolate 07-3011, 48 Hours): >64 µg/mL |
| CN1CCN(C(=O)C2C(C(=O)O)[C@H]3CC[C@@H]2O3)CC1 (some centres unmarked) [Compound 100, Endothall 4-Methylpiperazine Monoamide] | 24.3 | significant activity | >64 | >64 | >64 | >64 | >64 | >64 | >64 | >64 | >64 | >64 | >64 | >64 | inhibit the proliferation | >64 | >64 | >64 | >64 | >64 | Water solubility (in words) ([2]; own compounds): water soluble; MIC ([4]; 24 h): > 64 µg/mL; MIC ([4]; 48 h): > 64 µg/mL; MIC ([5]; 24 h): > 64 µg/mL; MIC ([5]; 48 h): > 64 µg/mL; MIC ([6]; 24 h): > 64 µg/mL; MIC ([6]; 48 h): > 64 µg/mL; MIC ([8]; 24 h): > 64 µg/mL; MIC ([8]; 48 h): > 64 µg/mL; MIC ([9]; 24 h): > 64 µg/mL; MIC ([9]; 48 h): > 64 µg/mL; minimum inhibitory concentration (MIC) ([9]; isolate 07-3011, 48 Hours): >64 µg/mL |
